These are literature values, as cited in US20110217294A1, “COMBINATION OF HGF INHIBITOR AND HEDGEHOG INHIBITOR TO TREAT CANCER” (priority 2009, published 2011).

The target in series [1] is heparin sulfate proteoglycans (HSPG). The following applies: low affinity binding site.
A further series deals with cMet receptor (Homo sapiens, UniProt P08581). As to conditions: high affinity binding site.
cMet receptor, sequence (P08581 25-1390): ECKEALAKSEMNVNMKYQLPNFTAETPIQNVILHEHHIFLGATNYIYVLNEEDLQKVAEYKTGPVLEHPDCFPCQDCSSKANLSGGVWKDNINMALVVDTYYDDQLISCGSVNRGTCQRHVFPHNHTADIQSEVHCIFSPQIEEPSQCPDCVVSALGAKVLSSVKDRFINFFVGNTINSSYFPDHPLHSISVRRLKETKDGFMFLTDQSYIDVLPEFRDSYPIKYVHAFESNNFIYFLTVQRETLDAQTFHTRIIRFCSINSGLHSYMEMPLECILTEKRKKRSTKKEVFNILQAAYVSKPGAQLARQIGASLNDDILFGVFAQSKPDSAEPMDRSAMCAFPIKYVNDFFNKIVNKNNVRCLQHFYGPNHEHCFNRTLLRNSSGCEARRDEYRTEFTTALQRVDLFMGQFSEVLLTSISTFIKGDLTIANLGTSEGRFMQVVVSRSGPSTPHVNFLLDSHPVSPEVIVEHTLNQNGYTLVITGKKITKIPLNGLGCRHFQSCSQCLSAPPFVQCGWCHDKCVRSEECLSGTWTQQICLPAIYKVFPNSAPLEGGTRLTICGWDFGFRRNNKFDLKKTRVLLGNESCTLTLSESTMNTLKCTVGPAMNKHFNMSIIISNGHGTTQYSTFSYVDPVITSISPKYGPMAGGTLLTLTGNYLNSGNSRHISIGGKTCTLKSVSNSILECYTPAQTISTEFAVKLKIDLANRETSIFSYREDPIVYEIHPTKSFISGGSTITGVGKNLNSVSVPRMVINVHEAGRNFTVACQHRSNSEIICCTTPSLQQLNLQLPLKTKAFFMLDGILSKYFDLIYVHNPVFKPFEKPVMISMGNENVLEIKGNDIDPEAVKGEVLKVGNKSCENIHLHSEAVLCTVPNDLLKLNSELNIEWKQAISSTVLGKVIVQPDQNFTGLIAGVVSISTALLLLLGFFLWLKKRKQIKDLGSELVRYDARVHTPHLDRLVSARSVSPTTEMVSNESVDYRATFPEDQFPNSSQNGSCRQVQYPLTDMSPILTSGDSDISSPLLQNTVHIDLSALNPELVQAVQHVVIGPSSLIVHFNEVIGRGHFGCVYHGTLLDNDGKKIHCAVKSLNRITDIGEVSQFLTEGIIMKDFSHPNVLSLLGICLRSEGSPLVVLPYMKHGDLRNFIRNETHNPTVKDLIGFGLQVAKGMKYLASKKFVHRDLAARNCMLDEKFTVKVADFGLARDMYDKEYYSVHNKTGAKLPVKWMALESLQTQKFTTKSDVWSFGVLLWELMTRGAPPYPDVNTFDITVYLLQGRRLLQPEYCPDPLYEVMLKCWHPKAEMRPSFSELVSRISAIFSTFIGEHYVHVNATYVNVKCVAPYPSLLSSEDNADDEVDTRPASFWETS

For “HGF: Human Hepatocyte Growth Factor, 102 kDa heterodimeric polypeptide”, the figures for the dissociation constant (Kd) (in series [1]; in the series with cMet receptor) were 1 nM and 0.2 nM, respectively.

One may read the Kd as the constant that tells how readily two partners part at equilibrium.
